Reference: patent US11041181B2, “Promoter and method for producing purine nucleotide using the same” (CJ CHEILJEDANG CORPORATION, priority 2019, dated 2021)

Legend:
ATCC6872 = assay: Resistance/sensitivity characteristics of strain on minimal medium with resistance-providing material; type: cell-based, Corynebacterium stationis
Method: (§1) To prepare an IMP-producing strain derived from the ATCC6872 strain, the culture of ATCC6872 was suspended in a phosphate buffer (pH 7.0) or citrate buffer (pH 5.5) at a density of 10^7 cells/mL to 10^8 cells/mL and treated with UV at room temperature or 32° C. for 20 min to 40 min to induce a mutation. The strain was washed with a 0.85% saline solution twice and spread, after dilution, on a minimal medium containing 1.7% agar which was supplemented with a resistance-providing material at an appropriate concentration, and thereby colonies were obtained. Each colony was cultured in a nutrient medium and then cultured in a seed culture medium for 24 hours. […] To prepare a strain producing IMP at high concentration, adenine-auxotroph, guanine-leaky type, lysozyme sensitivity, 3,4-dehydroproline resistance, streptomycin resistance, sulfaguanidine resistance, norvaline resistance, and trimethoprim resistance were provided by performing the corresponding procedures in a sequential manner. As a result, the CJI2332 strain provided with resistance to the above materials and having excellent IMP productivity was finally selected.
(§2) Minimal medium: 2% glucose, 0.3% sodium sulfate, 0.1% monopotassium phosphate, 0.3% dipotassium phosphate, 0.3% magnesium sulfate, 10 mg/L calcium chloride, 10 mg/L iron sulfate, 1 mg/L zinc sulfate, 3.6 mg/L manganese chloride, 20 mg/L L-cysteine, 10 mg/L calcium pantothenate, 5 mg/L thiamine hydrochloride, 30 μg/L biotin, 20 mg/L adenine, 20 mg/L guanine, adjusted to pH 7.3.

CJI2332 = type: cell-based, Corynebacterium stationis
Method: as §1, §2

## O=C(O)C1C=CCN1 (stereo not drawn) [3,4-Dehydroproline]
ATCC6872
  resistance: 1,000 μg/mL
CJI2332
  resistance: 3,500 μg/mL

## CCC[C@H](N)C(=O)O [Norvaline]
ATCC6872
  Norvaline resistance: 0.2 mg/mL
CJI2332
  Norvaline resistance: 2 mg/mL

## [H]/N=C(/N)N[C@H]1[C@H](O)[C@@H](O)[C@H](O[C@@H]2O[C@@H](C)[C@](O)(C=O)[C@H]2O[C@@H]2O[C@@H](CO)[C@H](O)[C@@H](O)[C@@H]2NC)[C@@H](N/C(N)=N\[H])[C@@H]1O [Streptomycin]
ATCC6872
  resistance: 500 µg/mL
CJI2332
  resistance: 2,000 μg/mL

## [H]/N=C(/N)NS(=O)(=O)c1ccc(N)cc1 [Sulfaguanidine]
ATCC6872
  resistance: 50 µg/mL
CJI2332
  resistance: 200 µg/mL

## COc1cc(Cc2cnc(N)nc2N)cc(OC)c1OC [Trimethoprim]
ATCC6872
  resistance: 20 µg/mL
CJI2332
  resistance: 100 µg/mL

## Lysozyme
ATCC6872
  Lysozyme sensitivity: 80 µg/mL
CJI2332
  Lysozyme sensitivity: 8 µg/mL
